Read-outs that look alike come from different tables or passages of the source.
Assays:
[1] = Stability in drinking water; format: physicochemical; conditions: 0.25 mg/ml, room temperature, changed every 3 days
Experimental: AZT (Sigma) was administered ad libitum in the drinking water at a concentration of 0.25 mg/ml. AZT was stable in the drinking water at room temperature and was changed every 3 days.

LP-BM5 = format: in vivo, C57BL/6 mice; conditions: at 10 weeks after infection
Description: LP-BM5 virus was provided by Robert Yetter (Veternas Administration Hospital, Baltimore, MD) and was maintained in a persistently infected SC- 1 cell line as described (Hosier D.E., Yetter R.A., Morse H.C. III, "Functional T lymphocytes are required for a murine retrovirus induced immunodeficiency disease (MAIDS)", J. Exp. Med. 1987; 165:1737-42). C57BL/6 female mice were purchased from Nossan, Milan, Italy and were used at 5 weeks of age. Animals were infected by means of two successive intraperitoneal injections at 24-hr intervals. In the experiments reported three different virus preparations were used.
Mice were housed at 22±1°C with a 12-hr light-dark cycle, 60±5% humidity, and 12 air changes/hr.
First, the efficacy of 2-fluoro-ara-AMP (F-araAMP, Fludara) in inhibiting murine AIDS (MAIDS), a disease characterized by a lymphoproliferative disorder (lymphadenopathy and splenomegaly), associated with severe immunodeficiency and hypergammaglobulinemia, was evaluated. The disease develops in some strains of mice (C57BL/6) that are infected with a murine leukemia virus mixture termed LP-BM5. In the first preliminary experiments (after about 4 months from infection) LP-BMS infected animals were treated with three different concentrations of F-ara-AMP: 0.065 mg/mouse, 0.325 mg/mouse, 0.650 mg/mouse. The animals of each group were treated intraperitoneally for 3 days a week and for 3 weeks. At the end of the treatment animals were killed and splenomegaly, lymphadenopathy and hypergammaglobulinemia were evaluated.
Infected mice after 7 weeks from infection were treated intraperitoneally with Fludara as follows: • 1. 0.65 mg/mouse once a day for 4 days a week (total dose 7.8 mg/mouse); • 2. 0.65 mg/mouse twice a day for 5 days a week (total dose 19.5 mg/mouse); • 3. […]

BM5d proviral DNA = test: PCR analysis of BM5d proviral DNA in spleen, lymph node and bone marrow; format: in vivo, C57BL/6 mice; conditions: at 10 weeks after infection
Description: The following oligonucleotide primers were used for the amplification of a 141-bp gag gene of defective virus genome (BM5d); 5' primer, 5'-AACCTTCCTCCTCTGCCA-3' (sense) corresponding to nucleotides 1456-1473 and 3' primer, 5'-ACCACCTCTCGGGCTTTC-3' (antisense) corresponding to nucleotides 1579-1596 of the BM5d genome (Chat topadhyay SK, Sengupta D.N., FredricksonT.N., Morse H.C. III, Hartley J.W., "Characteristics and contributions of defective, ecotropic and mink cell focus-inducing viruses in a retrovirus induced immunodeficiency syndrome of mice.", J..Virol. 1991; 65: 4232-41.). A second pair or oligonucleotide primers was used for amplification of 203-bp of the mouse glucose-6-phosphate dehydrogenase (G6PD) gene. This amplification served as an internal control (endogenous standard) for evaluation of the relative BM5d proviral DNA. The nucleotide primers for the amplification were as follows: 5' primer, 5'-[…]-3' (sense) and 3' primer, 5'-[…]-3' (antisense) (Kurdi-Haidar B., Mason P.J., Berrebi A., et al., "Origin and spread of the glucose-6-phosphate dehydrogenase variant (G6PD-Mediterranean) in the Middle East.", Am. J. Hum. Genet. 1990; 47:1013-19.).
Probe D30, which was derived from the 137-bp Smal-Xhol p12 gag fragment of the defective virus genome (DU5H), was kindly provided by P. Jolicoeur (Montreal, Canada) (Aziz D.C., Hanna Z., Jolicoeur P., "Severe immunodeficiency disease induced by a defective murine leukemia virus.", Nature 1989; 338: 505-08).
Total cellular DNA was isolated from the spleens, lymph nodes and bone marrow of uninfected, infected and infected/treated mice by the sodium iodide isopropanol method.
PCR amplifications were performed in a 25 µl final volume using the Perkin Elmer GeneAMP kit (1 mM MgCl2, 2.5 U AmpliTag) with 0.3 µg total cellular DNA and 20 pmol of each primer.
PCR reaction were carried out for 37 cycles at 95°C for 30 sec, 58°C for 30 sec and 72°C for 30 sec with a final extension at 72°C for 10 min.
Products were analyzed by electrophoresis on agarose gel, blotted and hybridized with either the ^32P-labeled D30 or G6PD probe.
The intensity of radiolabeled bands was analyzed and quantified in a GS-250 Molecular Imager™ (Bio-Rad, Hercules, CA, USA). For BM5d proviral DNA detection the relative integration was determined by dividing the intensity of the BM5d bands by the intensity of G6PD bands (Fraternale A., Casabianca A., Rossi L., et al., "Inhibition of murine AIDS by combination of AZT and dideoxycytidine 5'-triphosphate.", J. Acquir. Imm. Def Syndr. and Hum. Retrovir. 1996; 12:164-73). The percentages of inhibition were referred to the infected mice.

[2] = treatment a: AZT 250 mg/l in drinking water for 6 weeks
[3] = treatment b: AZT 250 mg/l in drinking water for 10 weeks

Cc1cn([C@H]2C[C@H](N=[N+]=[N-])[C@@H](CO)O2)c(=O)[nH]c1=O [AZT, 3'-Azido-3'-desoxythymidin]
stability in the drinking water [1]: stable | Lymph node w. (LP-BM5; [2]): 1.060 ± 0.240 g | Spleen w. (LP-BM5; [2]): 0.520 ± 0.070 g | Lymph node w. (LP-BM5; [3]): 0.550 ± 0.330 g | Spleen w. (LP-BM5; [3]): 0.580 ± 0.150 g | bone marrow, BM5d proviral DNA copy number (E) (BM5d proviral DNA; [2]): 28,500±3,535 Proviral DNA molecules per 0.3 µg of total cellular DNA | bone marrow, inhibition of BM5d (% vs. Infected) (F) (BM5d proviral DNA; [2]): 4.135±5.847% | lymph node, BM5d proviral DNA copy number (C) (BM5d proviral DNA; [2]): 30,966±7,169 Proviral DNA molecules per 0.3 µg of total cellular DNA | lymph node, inhibition of BM5d (% vs. Infected) (D) (BM5d proviral DNA; [2]): 85.89±3.26 % | spleen, BM5d proviral DNA copy number (A) (BM5d proviral DNA; [2]): 135,000±20,000 Proviral DNA molecules per 0.3 µg of total cellular DNA | spleen, inhibition of BM5d (% vs. Infected) (B) (BM5d proviral DNA; [2]): 15.14±9.60% | bone marrow, BM5d proviral DNA copy number (E) (BM5d proviral DNA; [3]): 13,761±8,766 Proviral DNA molecules per 0.3 µg of total cellular DNA | bone marrow, inhibition of BM5d (% vs. Infected) (F) (BM5d proviral DNA; [3]): 51.51±30.83 % | spleen, BM5d proviral DNA copy number (A) (BM5d proviral DNA; [3]): 39,669±19,026 Proviral DNA molecules per 0.3 µg of total cellular DNA | spleen, inhibition of BM5d (% vs. Infected) (B) (BM5d proviral DNA; [3]): 73.30±12.53 %

From patent publication EP0987025A1, “Pharmaceitical composition or composition package containing a pyrimidine nucleoside analogue and a purine nucleoside analogue” (priority 1998, dated 2000)
